Experimental data reported in PubChem BioAssay AID1963973 (Molecular Pharmacology Branch, DTP, NCI, 2024).

Test system: 883617-216-R-J1-PDC tumor spheroids, viability
Assay: Anticancer human tumor 883617-216-R-J1-PDC patient-derived bladder carcinoma cell line growth inhibition [PI3K]
Details: spheroids with HUVEC and MSC; for IC50: curve of first compound; for viability, T/C: stronger effect = lower value
In short: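 Viability of mixed-cell spheroids was determined after exposure to pairwise combinations, one partner being inavolisib, alpelisib, duvelisib or copanlisib. Highest tested concentration matched clinical Cmax where known and 10 microM where not, descending in half-log steps.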

[1] = second compound 0.00316 µM, first compound 0.000316 µM
[2] = second compound 0.00316 µM, first compound 0.001 µM
[3] = second compound 0.00316 µM, first compound 0.00316 µM
[4] = second compound 0.00316 µM, first compound 0.01 µM
[5] = second compound 0.00316 µM, first compound 0.0316 µM
[6] = second compound 0.00316 µM, first compound 0.1 µM
[7] = second compound 0.01 µM, first compound 0.000316 µM
[8] = second compound 0.01 µM, first compound 0.001 µM
[9] = second compound 0.01 µM, first compound 0.00316 µM
[10] = second compound 0.01 µM, first compound 0.01 µM
[11] = second compound 0.01 µM, first compound 0.0316 µM
[12] = second compound 0.01 µM, first compound 0.1 µM
[13] = second compound 0.0316 µM, first compound 0.000316 µM
[14] = second compound 0.0316 µM, first compound 0.001 µM
[15] = second compound 0.0316 µM, first compound 0.00316 µM
[16] = second compound 0.0316 µM, first compound 0.01 µM
[17] = second compound 0.0316 µM, first compound 0.0316 µM
[18] = second compound 0.0316 µM, first compound 0.1 µM
[19] = second compound 0.1 µM, first compound 0.000316 µM
[20] = second compound 0.1 µM, first compound 0.001 µM
[21] = second compound 0.1 µM, first compound 0.00316 µM
[22] = second compound 0.1 µM, first compound 0.01 µM
[23] = second compound 0.1 µM, first compound 0.0316 µM
[24] = second compound 0.1 µM, first compound 0.1 µM
[25] = second compound 0.316 µM, first compound 0.000316 µM
[26] = second compound 0.316 µM, first compound 0.001 µM
[27] = second compound 0.316 µM, first compound 0.00316 µM
[28] = second compound 0.316 µM, first compound 0.01 µM
[29] = second compound 0.316 µM, first compound 0.0316 µM
[30] = second compound 0.316 µM, first compound 0.1 µM
[31] = second compound 1 µM, first compound 0.000316 µM
[32] = second compound 1 µM, first compound 0.001 µM
[33] = second compound 1 µM, first compound 0.00316 µM
[34] = second compound 1 µM, first compound 0.01 µM
[35] = second compound 1 µM, first compound 0.0316 µM
[36] = second compound 1 µM, first compound 0.1 µM
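Further: spheroids exposed to agents for 7 days before the viability read.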

## CC(=O)c1c(C)c2cnc(Nc3ccc(N4CCNCC4)cn3)nc2n(C2CCCC2)c1=O + COc1c(OCCCN2CCOCC2)ccc2c3n(c(=NC(=O)c4cnc(N)nc4)nc12)CCN3
Second compound 0.00316 µM
  IC50: 0.0412 µM
Second compound 0.01 µM
  IC50: 0.0247 µM
Second compound 0.0316 µM
  IC50: < 0.000316 µM
Second compound 0.1 µM
  IC50: < 0.000316 µM
Second compound 0.316 µM
  IC50: < 0.000316 µM
Second compound 1 µM
  IC50: < 0.000316 µM
[1]
  viability, T/C: 63.1%
[2]
  viability, T/C: 75.6%
[3]
  viability, T/C: 92.5%
[4]
  viability, T/C: 72.2%
[5]
  viability, T/C: 53.3%
[6]
  viability, T/C: 39.7%
[7]
  viability, T/C: 71.5%
[8]
  viability, T/C: 70.5%
[9]
  viability, T/C: 61.2%
[10]
  viability, T/C: 71.6%
[11]
  viability, T/C: 44.9%
[12]
  viability, T/C: 26.4%
[13]
  viability, T/C: 40.5%
[14]
  viability, T/C: 37.6%
[15]
  viability, T/C: 30.2%
[16]
  viability, T/C: 27.5%
[17]
  viability, T/C: 27.1%
[18]
  viability, T/C: 21.6%
[19]
  viability, T/C: 16.1%
[20]
  viability, T/C: 12.2%
[21]
  viability, T/C: 11.1%
[22]
  viability, T/C: 13%
[23]
  viability, T/C: 11.2%
[24]
  viability, T/C: 11.8%
[25]
  viability, T/C: 4.61%
[26]
  viability, T/C: 5.01%
[27]
  viability, T/C: 4.74%
[28]
  viability, T/C: 3.95%
[29]
  viability, T/C: 4.31%
[30]
  viability, T/C: 3.85%
[31]
  viability, T/C: 3.24%
[32]
  viability, T/C: 2.85%
[33]
  viability, T/C: 2.99%
[34]
  viability, T/C: 3.68%
[35]
  viability, T/C: 2.94%
[36]
  viability, T/C: 2.98%

## CC(C)n1nc(-c2ccc3oc(N)nc3c2)c2c(N)ncnc21 + COc1c(OCCCN2CCOCC2)ccc2c3n(c(=NC(=O)c4cnc(N)nc4)nc12)CCN3
Second compound 0.00316 µM
  IC50: 0.0201 µM
Second compound 0.01 µM
  IC50: 0.0104 µM
Second compound 0.0316 µM
  IC50: < 0.000316 µM
Second compound 0.1 µM
  IC50: < 0.000316 µM
Second compound 0.316 µM
  IC50: < 0.000316 µM
Second compound 1 µM
  IC50: < 0.000316 µM
[1]
  viability, T/C: 82.6%
[2]
  viability, T/C: 73.9%
[3]
  viability, T/C: 79.2%
[4]
  viability, T/C: 63.6%
[5]
  viability, T/C: 40.7%
[6]
  viability, T/C: 17.4%
[7]
  viability, T/C: 64.9%
[8]
  viability, T/C: 61.8%
[9]
  viability, T/C: 62.2%
[10]
  viability, T/C: 49.2%
[11]
  viability, T/C: 33.4%
[12]
  viability, T/C: 14.4%
[13]
  viability, T/C: 40.3%
[14]
  viability, T/C: 34.1%
[15]
  viability, T/C: 34.9%
[16]
  viability, T/C: 28.6%
[17]
  viability, T/C: 18.5%
[18]
  viability, T/C: 11.5%
[19]
  viability, T/C: 14.7%
[20]
  viability, T/C: 15.1%
[21]
  viability, T/C: 15.1%
[22]
  viability, T/C: 13.2%
[23]
  viability, T/C: 8.07%
[24]
  viability, T/C: 4.79%
[25]
  viability, T/C: 5.33%
[26]
  viability, T/C: 5.54%
[27]
  viability, T/C: 5.8%
[28]
  viability, T/C: 5.35%
[29]
  viability, T/C: 4.04%
[30]
  viability, T/C: 3.54%
[31]
  viability, T/C: 2.62%
[32]
  viability, T/C: 3.45%
[33]
  viability, T/C: 3.33%
[34]
  viability, T/C: 3.45%
[35]
  viability, T/C: 3.43%
[36]
  viability, T/C: 2.69%

## CCCS(=O)(=O)Nc1ccc(F)c(C(=O)c2c[nH]c3ncc(-c4ccc(Cl)cc4)cc23)c1F + COc1c(OCCCN2CCOCC2)ccc2c3n(c(=NC(=O)c4cnc(N)nc4)nc12)CCN3
Second compound 0.00316 µM
  IC50: 4.09 µM
Second compound 0.01 µM
  IC50: 3.65 µM
Second compound 0.0316 µM
  IC50: < 0.0316 µM
Second compound 0.1 µM
  IC50: < 0.0316 µM
Second compound 0.316 µM
  IC50: < 0.0316 µM
Second compound 1 µM
  IC50: < 0.0316 µM
[5]
  viability, T/C: 78.5%
[6]
  viability, T/C: 88.4%
Second compound 0.00316 µM, first compound 0.316 µM
  viability, T/C: 85.1%
Second compound 0.00316 µM, first compound 1 µM
  viability, T/C: 77.9%
Second compound 0.00316 µM, first compound 3.16 µM
  viability, T/C: 61.7%
Second compound 0.00316 µM, first compound 10 µM
  viability, T/C: 10.4%
[11]
  viability, T/C: 67%
[12]
  viability, T/C: 72.6%
Second compound 0.01 µM, first compound 0.316 µM
  viability, T/C: 85.3%
Second compound 0.01 µM, first compound 1 µM
  viability, T/C: 61.7%
Second compound 0.01 µM, first compound 3.16 µM
  viability, T/C: 56.6%
Second compound 0.01 µM, first compound 10 µM
  viability, T/C: 13.1%
[17]
  viability, T/C: 38.8%
[18]
  viability, T/C: 45.7%
Second compound 0.0316 µM, first compound 0.316 µM
  viability, T/C: 47%
Second compound 0.0316 µM, first compound 1 µM
  viability, T/C: 44.2%
Second compound 0.0316 µM, first compound 3.16 µM
  viability, T/C: 36.9%
Second compound 0.0316 µM, first compound 10 µM
  viability, T/C: 12.8%
[23]
  viability, T/C: 25%
[24]
  viability, T/C: 19.9%
Second compound 0.1 µM, first compound 0.316 µM
  viability, T/C: 17.6%
Second compound 0.1 µM, first compound 1 µM
  viability, T/C: 17.8%
Second compound 0.1 µM, first compound 3.16 µM
  viability, T/C: 18%
Second compound 0.1 µM, first compound 10 µM
  viability, T/C: 7.55%
[29]
  viability, T/C: 5.17%
[30]
  viability, T/C: 7.28%
Second compound 0.316 µM, first compound 0.316 µM
  viability, T/C: 6.6%
Second compound 0.316 µM, first compound 1 µM
  viability, T/C: 8.36%
Second compound 0.316 µM, first compound 3.16 µM
  viability, T/C: 9.94%
Second compound 0.316 µM, first compound 10 µM
  viability, T/C: 4.39%
[35]
  viability, T/C: 3.48%
[36]
  viability, T/C: 4.22%
Second compound 1 µM, first compound 0.316 µM
  viability, T/C: 4.32%
Second compound 1 µM, first compound 1 µM
  viability, T/C: 5.19%
Second compound 1 µM, first compound 3.16 µM
  viability, T/C: 6.41%
Second compound 1 µM, first compound 10 µM
  viability, T/C: 2.37%
